One assay deals with T1, mS100A8/A9 and mRAGE (Mus musculus, UniProt P31725).
T1 construct: purchased R&D Systems (mRAGE/Fc); S100A8/A9 made in house
T1 sequence (P31725 2-113 limits assumed): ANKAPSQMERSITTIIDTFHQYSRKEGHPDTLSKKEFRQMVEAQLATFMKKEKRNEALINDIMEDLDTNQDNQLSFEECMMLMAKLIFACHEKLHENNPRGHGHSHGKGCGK
T1 sequence (P27005 2-89 partner limits assumed): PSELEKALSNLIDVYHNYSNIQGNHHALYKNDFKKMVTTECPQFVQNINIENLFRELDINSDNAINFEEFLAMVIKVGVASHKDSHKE
The experiment in a line: SPR: inhibition of mouse S100A8/A9 binding to mouse RAGE. The note with it: Table S1. On the procedure:
(§1) The SPR analysis was carried out with the Biacore 3000 system (GE Healthcare). Sensor chips, amine coupling kit, immobilization and running buffers, and regeneration solutions were obtained from GE Healthcare. Working solutions of all reagents used for Biacore analysis were prepared in 0.01 M Hepes, 0.15 M NaCl (pH 7.4) containing 0.005% v/v Surfactant P-20 (HBS-P; GE Healthcare) by buffer exchange on Fast Protein Desalting Micro-Spin Columns from Pierce. ABR-215757 was immobilised onto a CM5 chip through an amino-linker (ABR-224649). […] Activity of ligands after immobilisation was tested by injecting specific antibodies (unpublished data). In some experiments, S100A9 was immobilized either by random amine coupling or with a known orientation (i.e., by sulhydryl group conjugation to the only cysteine in S100A9 at position 3).
(§2) Binding to the various surfaces was performed by injecting the analyte at a flow rate of 30 μl/min in a physiological buffer (HBS-P) containing 1 mM Ca^2+ and 10 μM Zn^2+ as proposed for S100A8/9 by Robinson et al.. A typical analysis cycle consists of: (1) pumping running buffer for 1 min to obtain a stable baseline; (2) injection of sample for an appropriate period of time (association); (3) pumping running buffer for 2.5 min (dissociation); (4) injection of a short pulse (30 s) of 15 μl 10 mM glycine-HCl (pH 2.0) (regeneration); and (5) pumping running buffer for 2 min (stabilisation after regeneration) at a flow rate of 30 μl/min. […] In one experiment, S100A9 was injected into a buffer with a fixed Ca^2+ concentration (1 mM) and Zn^2+ in the range 0–50 μM. In a second experiment, Ca^2+ was varied from 0–2 mM at a fixed Zn^2+ concentration (10 μM). In subsequent analyses, regeneration was carried out under more mild conditions, i.e., by injecting 30 μl of HBS-P containing 3 mM EDTA (HBS-EP; GE Healthcare) for 60 s, to prolong the lifespan of the chip.
(§3) Compounds were also injected over the immobilised surfaces in the absence of S100A9 to exclude, or make possible correction for, any direct binding of compound to the surface.
(§4) Evaluation was carried out using BIAevaluation Software version 3.2 (GE Healthcare). The response at steady-state was obtained by fit of sensorgrams to standard binding models, where appropriate, or calculated as responses at late association or early dissociation phase using the Steady state affinity function in BIAevaluation. Affinity was determined from kinetic analysis (on- and off-rates) or as the apparent affinity after plotting responses versus concentration of analyte in a saturation curve. In the inhibition assay format, the competitor concentration yielding 50% inhibition (IC50) was calculated by fitting data to a one-site competition model in GraphPad Prism.
For orientation: SPR reads the build-up and loss of mass on a sensor chip optically.

The target in the next assay is T2, mS100A9 and mLPS-Trap (Mus musculus, UniProt P31725).
T2 sequence (P31725 2-113 limits assumed): T1 sequence (P31725 2-113 limits assumed)
In words: SPR: inhibition of mouse S100A9 binding to immobilised mouse TLR4/MD2 fusion protein (mLPS-Trap). On the procedure:
as §1, §2, §3, §4

Another assay concerns the target T3, human RAGE (Homo sapiens, UniProt Q15109).
T3 construct: purchased R&D Systems
The experiment in a line: SPR: direct binding to immobilised human RAGE. The note with it: unpublished data. Here is the method:
as §1, with “3). […]” for “3).”
(§5) Evaluation was carried out using BIAevaluation Software version 3.2 (GE Healthcare). The response at steady-state was obtained by fit of sensorgrams to standard binding models, where appropriate, or calculated as responses at late association or early dissociation phase using the Steady state affinity function in BIAevaluation. Affinity was determined from kinetic analysis (on- and off-rates) or as the apparent affinity after plotting responses versus concentration of analyte in a saturation curve. […]

The target in the next assay is T4, human S100A9 (Homo sapiens, UniProt P06702).
T4 construct: made in house; host or cells: Escherichia coli (or purified from granulocytes)
T4 sequence (P06702 1-114): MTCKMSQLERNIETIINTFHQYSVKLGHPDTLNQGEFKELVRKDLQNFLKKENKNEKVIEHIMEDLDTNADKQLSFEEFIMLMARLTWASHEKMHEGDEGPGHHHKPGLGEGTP
The experiment in a line: SPR: human S100A9 binding to immobilised ABR-224649 (Q compound), direct binding and displacement. Here is the method: as §1, §2, §3, §4

The target of another assay is T5, mS100A9 (Mus musculus, UniProt P31725).
T5 construct: made in house; host or cells: Escherichia coli (or purified from granulocytes)
T5 sequence (P31725 1-113): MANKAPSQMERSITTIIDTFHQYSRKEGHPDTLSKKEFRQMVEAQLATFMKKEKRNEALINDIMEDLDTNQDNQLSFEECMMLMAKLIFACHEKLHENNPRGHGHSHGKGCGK
In words: SPR: inhibition of mouse S100A9 binding to immobilised ABR-224649. The note with it: Table S1. Here is the method:
as §1, §2, §3, §4

Another assay addresses T6, mS100A9 and mRAGE/hFc (Mus musculus, UniProt P31725).
T6 construct: purchased R&D Systems (mRAGE/Fc); S100A9 made in house
T6 sequence (P31725 2-113 limits assumed): T1 sequence (P31725 2-113 limits assumed)
In words: SPR: inhibition of mouse S100A9 binding to immobilised mouse RAGE. Here is the method:
as §1, §2, §3, §4

Assay [1] addresses T7, human S100A9 binding to human TLR4/MD2 (Homo sapiens, UniProt P06702).
T7 construct: purchased R&D Systems (TLR4/MD-2 complex); S100A9 made in house
T7 sequence (P06702 1-114): T4 sequence (P06702 1-114)
The experiment in a line: SPR: inhibition of human S100A9 binding to immobilised human TLR4/MD2. Here is the method:
as §1, §2, §3, §4

Assay [2] concerns the target T8, human S100A9 binding to human RAGE (Homo sapiens, UniProt P06702).
T8 construct: purchased R&D Systems (RAGE/Fc); S100A9 made in house
T8 sequence (P06702 1-114): T4 sequence (P06702 1-114)
The experiment in a line: SPR: inhibition of human S100A9 binding to immobilised human RAGE. On the procedure:
as §1, §2, §3, §4

The next assay addresses T9, mS100A8/A9 and mLPS-Trap (Mus musculus, UniProt P31725).
T9 sequence (P31725 2-113 limits assumed): T1 sequence (P31725 2-113 limits assumed)
In words: SPR: inhibition of mouse S100A8/A9 binding to mLPS-Trap. The note with it: Table S1; read-out: S100A8-9 binding IC50, mS100A8/A9 TLR4. On the procedure:
as §1, §2, §3, §4

A further assay deals with T10, human TLR4/MD2 (Homo sapiens, UniProt O00206+Q9Y6Y9).
T10 construct: purchased R&D Systems
T10 sequence (O00206 24-631 limits assumed): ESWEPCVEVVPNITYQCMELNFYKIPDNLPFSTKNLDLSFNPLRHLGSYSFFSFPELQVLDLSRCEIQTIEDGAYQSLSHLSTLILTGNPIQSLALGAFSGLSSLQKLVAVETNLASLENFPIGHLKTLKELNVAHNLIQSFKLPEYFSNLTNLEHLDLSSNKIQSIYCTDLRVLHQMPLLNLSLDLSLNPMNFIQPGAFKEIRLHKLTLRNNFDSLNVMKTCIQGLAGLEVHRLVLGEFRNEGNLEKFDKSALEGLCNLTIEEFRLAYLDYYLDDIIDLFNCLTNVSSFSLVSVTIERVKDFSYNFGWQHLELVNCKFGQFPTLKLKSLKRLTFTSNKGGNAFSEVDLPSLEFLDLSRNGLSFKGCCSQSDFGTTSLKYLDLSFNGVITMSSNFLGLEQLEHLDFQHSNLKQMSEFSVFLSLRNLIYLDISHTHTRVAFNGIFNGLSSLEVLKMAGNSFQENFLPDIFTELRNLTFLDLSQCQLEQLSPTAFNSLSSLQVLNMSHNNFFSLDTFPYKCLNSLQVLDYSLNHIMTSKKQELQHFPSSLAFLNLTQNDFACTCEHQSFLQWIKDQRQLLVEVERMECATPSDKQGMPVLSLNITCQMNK
T10 sequence (Q9Y6Y9 19-160): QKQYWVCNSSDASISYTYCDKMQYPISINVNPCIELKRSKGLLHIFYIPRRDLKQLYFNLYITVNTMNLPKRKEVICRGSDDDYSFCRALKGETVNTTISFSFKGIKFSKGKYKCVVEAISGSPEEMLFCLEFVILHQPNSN
The experiment in a line: SPR: direct binding to immobilised human TLR4/MD2. The note with it: unpublished data. Here is the method: as §1, with “3). […]” for “3).”
as §5

A further assay has as its target T11, human S100A8 (Homo sapiens, UniProt P05109).
T11 construct: made in house; host or cells: Escherichia coli or granulocytes
T11 sequence (P05109 1-93): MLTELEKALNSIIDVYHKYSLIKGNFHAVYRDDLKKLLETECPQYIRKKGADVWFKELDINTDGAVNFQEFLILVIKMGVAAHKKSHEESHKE
The experiment in a line: SPR: human S100A8 binding to immobilised Q compound. To be noted: 100 nM protein. On the procedure: as §1
Binding to the various surfaces was performed by injecting the analyte at a flow rate of 30 μl/min in a physiological buffer (HBS-P) containing 1 mM Ca^2+ and 10 μM Zn^2+ as proposed for S100A8/9 by Robinson et al.. […]

Assay [3] concerns aEAE development in SLJ/N mice. In words: acute experimental autoimmune encephalomyelitis (aEAE) in mice. It counts as in vivo, mouse. To be noted: Mus musculus, read-out: aEAE Inhibition ED50. An excerpt: A training set of five quinoline derivatives with structural diversification performed at position 5 of the quinoline ring system was used for the SAR. PCA was used to uncover any relationship between the binding activities of the quinoline derivatives at the S100 proteins and the inhibitory effect of these derivatives in the aEAE model. PLS was then used to model the relationship between the physiochemical descriptors used to characterize the compounds and their biological responses. […] All variables were mean centred and scaled to unit variance.

For assay [4], the system named is serum TNFα after LPS challenge. In words: LPS-induced systemic TNFα production in C57BL/6 mice. The format is in vivo, mouse. On the procedure:
TNFα induction after intraperitoneal challenge with LPS was performed essentially as described. In brief, mice were pretreated for 2 h with 10 mg/kg ABR-215757 or PBS, after which 3 or 6 μg of LPS was injected intraperitoneally. After an additional 90 min, the animals were sacrificed, and the level of TNFα in blood was determined using commercial TNFα antibodies (eBioscience; http://www.ebioscience.com).

Structures are written as SMILES. pIC50: −log10 of the molar value. Like-named read-outs stand apart in the source and are kept apart here.

T3 sequence (Q15109 23-342 limits assumed): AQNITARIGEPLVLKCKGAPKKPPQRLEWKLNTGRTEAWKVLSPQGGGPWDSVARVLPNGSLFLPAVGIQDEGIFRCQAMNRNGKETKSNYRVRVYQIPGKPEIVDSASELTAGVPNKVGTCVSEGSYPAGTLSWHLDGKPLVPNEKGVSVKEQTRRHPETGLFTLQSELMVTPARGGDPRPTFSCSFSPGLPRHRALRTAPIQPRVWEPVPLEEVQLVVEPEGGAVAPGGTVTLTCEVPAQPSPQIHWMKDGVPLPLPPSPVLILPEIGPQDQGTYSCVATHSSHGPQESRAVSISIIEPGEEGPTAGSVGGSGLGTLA

In the case of `CCc1cccc2c1c(O)c(C(=O)N(CC)c1ccccc1)c(=O)n2C` [ABR-215757], the pIC50 at mS100A8/A9 and mRAGE is 3.48; at mS100A9 and mLPS-Trap (Table S1), 3.16; at human S100A9 (100 nM S100A9, competitor 7.81–1,000 μM, one-site competition model, 1 mM Ca2+ and 10 μM Zn2+), 4.43; at mS100A9 it was 3.03; on mS100A9 and mRAGE/hFc (Table S1) it was 3.51; in assay [1] (100 nM S100A9, competitor 7.81 to 1,000 μM, single experiment Figure 3C, read-out: IC50, inhibition of S100A9 binding to immobilised hTLR4/MD2) it was 4.64. In addition, the pIC50 in assay [1] (Table S1, read-out: S100A9 binding IC50, hS100A9 TLR4) is 4.22; in assay [2] (S100A9 binding IC50, hS100A9 RAGE, Table S1), 4.22; in [2] (competitor concentration yielding 50% inhibition of S100A9 binding to RAGE surface, 100 nM S100A9, competitor 7.81–1,000 μM, single experiment Figure 2C), 4.59; on mS100A8/A9 and mLPS-Trap, 3.48. Also, the “competition of mouse S100A9 interaction with solid-phase mouse TLR4/MD2” value on mS100A9 and mLPS-Trap (100 nM mouse S100A9) was “competed”. Besides, the “direct binding to RAGE” value on human RAGE is recorded as “not observed”. For the same molecule, the “binding of recombinant S100A9 to Q compound coupled to solid phase” value at human S100A9 is reported as “bound strongly”. The “competition of mouse S100A9 interaction with solid-phase mouse RAGE” value at mS100A9 and mRAGE/hFc (100 nM mouse S100A9) is “competed”. The “direct binding to hTLR4/MD2” value on human TLR4/MD2 is listed as “negligible”. Also, the “binding of S100A8 to immobilised Q compound” value on human S100A8 is “close to baseline levels”. The ED50 in assay [3] came out at 0.04 mg/kg. Moreover, the “TNFα production after LPS challenge” value in [4] (3 μg LPS i.p., treatment 2 h before (ABR-215757 10 mg/kg)) was “significantly inhibited”; in assay [4] (6 μg LPS i.p., 10 mg/kg 2 h before) it was “significantly inhibited”.

The ED50 is the midpoint of the dose-response relation.

The values above are taken from publication PMC2671563 (PLoS Biology, 2009).
